Results from US20070049564A1 (Wyeth, priority 2005, published 2007).
Values after ≈ are worked out from the molar mass of the structure shown. Read-outs that look alike come from different tables or passages of the source.

Columns and labels:
[1] = system: E. coli GC 2234; assay: MIC, broth microdilution; conditions: Escherichia coli
[2] = system: E. coli GC 2236; assay: MIC, broth microdilution; conditions: Escherichia coli
[3] = system: E. faecalis GC 2242; assay: MIC, broth microdilution; conditions: Enterococcus faecalis
[4] = system: E. coli; assay: Range of MIC for E. coli strains; conditions: Escherichia coli
[5] = system: E. coli GC 4559; assay: MIC, broth microdilution; conditions: Escherichia coli
[6] = system: S. pneumoniae+ GC 4465; assay: MIC, broth microdilution; conditions: Streptococcus pneumoniae
[7] = system: E. faecalis GC 4555; assay: MIC, broth microdilution; conditions: Enterococcus faecalis
[8] = system: Staph. aureus Smith; assay: In vivo activity (oral, iv; ED50) against Staph. aureus Smith in mice
[9] = system: S. aureus GC 4536; assay: MIC, broth microdilution; conditions: Staphylococcus aureus
[10] = system: E. coli GC 2231; assay: MIC, broth microdilution; conditions: Escherichia coli
[11] = system: E. coli GC 2235; assay: MIC, broth microdilution; conditions: Escherichia coli
[12] = system: S. aureus GC 6466; assay: MIC, broth microdilution; conditions: Staphylococcus aureus
[13] = system: S. agalactiae GC 4564; assay: MIC, broth microdilution; conditions: Streptococcus agalactiae
[14] = system: S. pyogenes GC 4563; assay: MIC, broth microdilution; conditions: Streptococcus pyogenes
[15] = system: S. aureus GC 2216; assay: MIC, broth microdilution; conditions: Staphylococcus aureus
[16] = system: Staph.; assay: Range of MIC for Staph. strains, including MRSA; conditions: Staphylococcus aureus, MRSA
[17] = system: E. coli GC 2232; assay: MIC, broth microdilution; conditions: Escherichia coli
[18] = system: S. typhimurium GC 2172; assay: MIC, broth microdilution; conditions: Salmonella enterica, TYPHIMURIUM
[19] = system: S. pneumoniae* GC 4465; assay: MIC, broth microdilution; conditions: Streptococcus pneumoniae
[20] = system: E. faecium GC 4556; assay: MIC, broth microdilution; conditions: Enterococcus faecium
[21] = read-out: MINIMAL INHIBITORY CONCENTRATION MIC, pre-incubated in Mouse Serum
[22] = read-out: MINIMAL INHIBITORY CONCENTRATION MIC, pre-incubated in Water

MIC ([1]; GC2234, read-out: MINIMAL INHIBITORY CONCENTRATION MIC, pre-incubated in Mouse Serum): 0.25 µg/mL (≈ 0.31 µM)
MIC ([1]; GC2234, read-out: MINIMAL INHIBITORY CONCENTRATION MIC, pre-incubated in Water): > 64 µg/mL
MIC ([2]; GC2236, read-out: MINIMAL INHIBITORY CONCENTRATION MIC, pre-incubated in Mouse Serum): 0.5 µg/mL (≈ 0.62 µM)
MIC ([2]; GC2236, read-out: MINIMAL INHIBITORY CONCENTRATION MIC, pre-incubated in Water): > 64 µg/mL
MIC ([3]; GC2242, read-out: MINIMAL INHIBITORY CONCENTRATION MIC, pre-incubated in Mouse Serum): 0.5 µg/mL (≈ 0.62 µM)
MIC ([3]; GC2242, read-out: MINIMAL INHIBITORY CONCENTRATION MIC, pre-incubated in Water): 4 µg/mL (≈ 4.96 µM)
MIC ([4]; 20 h, read-out: Range of MIC, E. coli (Mouse Serum)): 0.25 to 1 µg/mL (≈ 0.31 to 1.24 µM)
MIC ([4]; read-out: Range of MIC, E. coli (Water)): > 64 µg/mL
MIC ([4]; read-out: Range of MIC, E. coli (mouse serum)): 0.25 to 1 µg/mL (≈ 0.31 to 1.24 µM)
MIC ([4]; read-out: Range of MIC, E. coli (water)): > 64 µg/mL
MIC ([5]; GC4559, read-out: MINIMAL INHIBITORY CONCENTRATION MIC, pre-incubated in Mouse Serum): 0.5 µg/mL (≈ 0.62 µM)
MIC ([5]; GC4559, read-out: MINIMAL INHIBITORY CONCENTRATION MIC, pre-incubated in Water): > 64 µg/mL
MIC [6, 21]: 2 µg/mL (≈ 2.48 µM)
MIC [6, 22]: 0.5 µg/mL (≈ 0.62 µM)
MIC ([7]; GC4555, read-out: MINIMAL INHIBITORY CONCENTRATION MIC, pre-incubated in Mouse Serum): 0.25 µg/mL (≈ 0.31 µM)
MIC ([7]; GC4555, read-out: MINIMAL INHIBITORY CONCENTRATION MIC, pre-incubated in Water): 64 µg/mL (≈ 79.4 µM)
MIC ([9]; GC4536, read-out: MINIMAL INHIBITORY CONCENTRATION MIC, pre-incubated in Mouse Serum): 0.5 µg/mL (≈ 0.62 µM)
MIC ([9]; GC4536, read-out: MINIMAL INHIBITORY CONCENTRATION MIC, pre-incubated in Water): 32 µg/mL (≈ 39.7 µM)
MIC ([10]; GC2231, read-out: MINIMAL INHIBITORY CONCENTRATION MIC, pre-incubated in Mouse Serum): 1 µg/mL (≈ 1.24 µM)
MIC ([10]; GC2231, read-out: MINIMAL INHIBITORY CONCENTRATION MIC, pre-incubated in Water): > 64 µg/mL
MIC ([11]; GC2235, read-out: MINIMAL INHIBITORY CONCENTRATION MIC, pre-incubated in Mouse Serum): 0.5 µg/mL (≈ 0.62 µM)
MIC ([11]; GC2235, read-out: MINIMAL INHIBITORY CONCENTRATION MIC, pre-incubated in Water): > 64 µg/mL
MIC ([12]; GC6466, read-out: MINIMAL INHIBITORY CONCENTRATION MIC, pre-incubated in Mouse Serum): 0.5 µg/mL (≈ 0.62 µM)
MIC ([12]; GC6466, read-out: MINIMAL INHIBITORY CONCENTRATION MIC, pre-incubated in Water): 4 µg/mL (≈ 4.96 µM)
MIC ([13]; GC4564, read-out: MINIMAL INHIBITORY CONCENTRATION MIC, pre-incubated in Mouse Serum): 0.25 µg/mL (≈ 0.31 µM)
MIC ([13]; GC4564, read-out: MINIMAL INHIBITORY CONCENTRATION MIC, pre-incubated in Water): 0.5 µg/mL (≈ 0.62 µM)
MIC ([14]; GC4563, read-out: MINIMAL INHIBITORY CONCENTRATION MIC, pre-incubated in Mouse Serum): < 0.06 µg/mL
MIC ([14]; GC4563, read-out: MINIMAL INHIBITORY CONCENTRATION MIC, pre-incubated in Water): < 0.06 µg/mL
MIC ([15]; GC2216, read-out: MINIMAL INHIBITORY CONCENTRATION MIC, pre-incubated in Mouse Serum): 0.5 µg/mL (≈ 0.62 µM)
MIC ([15]; GC2216, read-out: MINIMAL INHIBITORY CONCENTRATION MIC, pre-incubated in Water): 32 µg/mL (≈ 39.7 µM)
MIC ([16]; read-out: Range of MIC, Staph (Mouse Serum)): 0.5 to 4 µg/mL (≈ 0.62 to 4.96 µM)
MIC ([16]; read-out: Range of MIC, Staph (Water)): 4 to 64 µg/mL (≈ 4.96 to 79.4 µM)
MIC ([16]; read-out: Range of MIC, Staph. (mouse serum)): 0.5 to 4 µg/mL (≈ 0.62 to 4.96 µM)
MIC ([16]; read-out: Range of MIC, Staph. (water)): 4 to 64 µg/mL (≈ 4.96 to 79.4 µM)
MIC ([17]; GC2232, read-out: MINIMAL INHIBITORY CONCENTRATION MIC, pre-incubated in Mouse Serum): 0.5 µg/mL (≈ 0.62 µM)
MIC ([17]; GC2232, read-out: MINIMAL INHIBITORY CONCENTRATION MIC, pre-incubated in Water): > 64 µg/mL
MIC [18, 21]: 8 µg/mL (≈ 9.93 µM)
MIC [18, 22]: > 64 µg/mL
MIC [19, 21]: < 0.06 µg/mL
MIC [19, 22]: < 0.06 µg/mL
MIC ([20]; GC4556, read-out: MINIMAL INHIBITORY CONCENTRATION MIC, pre-incubated in Mouse Serum): 0.5 µg/mL (≈ 0.62 µM)
MIC ([20]; GC4556, read-out: MINIMAL INHIBITORY CONCENTRATION MIC, pre-incubated in Water): 32 µg/mL (≈ 39.7 µM)
SMILES: CCCN(CC(=O)Nc1cc(N(C)C)c2c(c1O)C(=O)C1=C(O)[C@]3(O)C(=O)C(C(N)=O)=C(O)[C@@H](N(C)C)[C@@H]3C[C@@H]1C2)C(=O)OCOC(=O)c1ccc(C(C)(C)C)cc1 [Example 28, ({[(2-{[(5aR,6aS,7S,10aS)-9-(aminocarbonyl)-4,7-bis(dimethylamino)-1,8,10a,11-tetrahydroxy-10,12-dioxo-5,5a,6,6a,7,10,10a,12-octahydrotetracen-2-yl]amino}-2-oxoethyl)(propyl)amino]carbonyl}oxy)methyl 4-tert-butylbenzoate]
ED50 ([8]; Staphylococcus aureus, in Mus musculus, iv, read-out: ED50 SIV (Staph aureus Smith)): 0.6 mg/kg
ED50 ([8]; Staphylococcus aureus, in Mus musculus, po, read-out: ED50 SOD (Staph aureus Smith)): 6.61 mg/kg
ED50 ([8]; Staphylococcus aureus, in Mus musculus, po, read-out: ED50 Staph Smith SOD): 6.61 mg/kg
ED50 ([8]; iv, read-out: ED50 Staph Smith SIV): 0.6 mg/kg
